The record followed here is US20080171737A1 (Wyeth, priority 2006, published 2008).

Each structure is given as a SMILES string. Where a name gives a salt, the structure may show the parent alone.

The first test deals with T1, human hNET (Homo sapiens, UniProt P23975).
T1 construct: expressed in transfected cells; host or cells: MDCK-Net6 (MDCK cells stably transfected with hNET)
T1 sequence (P23975 whole entry): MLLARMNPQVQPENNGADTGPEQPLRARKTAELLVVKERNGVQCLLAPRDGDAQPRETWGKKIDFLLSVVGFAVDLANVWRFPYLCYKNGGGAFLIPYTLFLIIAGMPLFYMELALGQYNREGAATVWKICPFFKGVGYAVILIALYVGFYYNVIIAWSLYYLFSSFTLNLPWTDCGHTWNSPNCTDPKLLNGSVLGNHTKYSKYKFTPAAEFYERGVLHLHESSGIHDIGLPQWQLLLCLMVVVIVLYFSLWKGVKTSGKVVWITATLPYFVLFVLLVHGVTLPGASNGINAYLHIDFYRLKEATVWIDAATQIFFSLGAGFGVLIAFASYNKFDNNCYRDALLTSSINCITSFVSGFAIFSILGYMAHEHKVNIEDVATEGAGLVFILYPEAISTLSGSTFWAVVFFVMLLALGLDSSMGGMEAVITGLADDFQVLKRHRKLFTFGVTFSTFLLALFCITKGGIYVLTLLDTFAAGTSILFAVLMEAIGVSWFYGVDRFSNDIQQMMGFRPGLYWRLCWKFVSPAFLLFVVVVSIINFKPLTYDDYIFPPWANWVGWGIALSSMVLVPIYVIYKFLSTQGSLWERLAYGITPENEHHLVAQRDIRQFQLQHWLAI
Nature of the test: Functional norepinephrine reuptake assay, Procedure B (6,000 cells/well). It is filed as cell-based.
Settings: not given
As for the experimental part:
For screening, 25 μl aliquots of compound solution at a 1 μM or 10 μM final concentration was delivered directly to cells.
For IC50 determinations, stock compounds were prepared at 10 mM from powder. The stock solution was diluted according to compound testing range. […] On the day of assay, 25 μl of compound solution at the specified concentrations were added to the plates containing cells. A DMSO stock of desipramine was prepared at 10 mM in DMSO and diluted for a final concentration of 20 μM to determine the non-specific reuptake.
MDCK-Net6 cells, stably transfected with human hNET (Pacholczyk, 1991), were maintained in growth media [high glucose DMEM (Gibco Cat. 11995), 10% FBS (dialyzed, heat-inactivated, Sigma, dialysed, heat inactivated, Lot# K0922 or equivalent) 1xPen/Strep, and 500 μg/ml G418 (Gibco Cat. 10131)]. Cells were plated at 300,000/T75 flask and cells split twice weekly.
Cells were plated at 50,000 cells/well (Procedure A) or 6,000 cells/well (Procedure B) on day 1 in BD Falcon Microtest 96-well sterile cell culture plates, Optilux White/Clear Bottom TC plate (VWR; # 62406-466 or equivalent) in growth media and maintained in a cell incubator (37° C., 5% CO2). On Day 2, cells were removed from the cell incubator and the growth media is replaced by 200 μl of assay buffer (25 mm HEPES 120 mM NaCL; 5 mM KCl; 2.5 mM CaCl2; 1.2 mM MgSO4; 2 mg/ml glucose (pH 7.4, 37° C.)) containing 0.2 mg/ml ascorbic acid and 1 μM parglyine. For screening, 25 μl of compound in 4% DMSO was added directly to each well and the plate was incubated for 5 minutes (37° C.). […] The reaction is aspirated from the plate and the cells washed with 250 μl of 50 mM Tris Buffer (4° C.). The plates were left to dry for 1 hour. The cells were lysed using 0.25 M NaOH solution then placed on a shake table and vigorously shaken for 10 minutes. After cell lysis, 100 μl of Microscint 20 (PerkinElmer; #87-051101) was added to the plates and the plates were sealed with film tape and replaced on the shake table for a minimum of 10 minutes. The plates were counted in a TopCount counter (PerkinElmer).
% inhibition=[1−((mean cpm test compound wells−mean cpm non-specific wells)/(mean cpm control wells−mean cpm non-specific wells))]×100
For IC50 determination, raw cpm values were generated in a data file from the TopCount counter. The data was organized using the Microsoft Excel and transferred into PRIZM graphing and statistical program, which calculated the estimated IC50 value. Calculation of IC50 values was made using non-linear regression analysis with a sigmoidal dose response with variable slope. The statistical program used wells containing ^3H norepinephrine only as the maximal NE reuptake determinant and wells containing ^3H norepinephrine plus 20 μM desipramine (AHR-9543) as the minimal NE reuptake determinant (non-specific determinant). Estimation of the IC50 value was completed on a log scale and the line was fit between the maximal and minimal NE reuptake values.
What is called IC50 is the midpoint of a concentration-inhibition curve. For `CNCCC[C@H]1Cc2cc(F)ccc2N(c2ccccc2F)S1(=O)=O` (single isomer, unassigned) [Example 109], the half-maximal inhibitory concentration (IC50) worked out at 93 nM.

The same test, now with this note: MDCK-Net6 cells, 6,000 cells/well, 16 nM 3H-norepinephrine; read-out: Procedure B hNET uptake IC50.
As to `CNCCC[C@@H]1Cc2cc(F)ccc2N(c2ccc(F)cc2F)S1(=O)=O` (single isomer, unassigned) [Example 113], the half-inhibitory concentration (IC50) is 34 nM.

`CNCCCC1Cc2cc(F)ccc2N(c2ccccc2F)S1(=O)=O` (stereo not shown) [Example 108, 3-[6-fluoro-1-(2-fluorophenyl)-2,2-dioxido-3,4-dihydro-1H-2,1-benzothiazin-3-yl]-N-methylpropan-1-amine]: the IC50 was 24 nM.

For the compound `NCCC1Oc2ccccc2N(c2ccccc2)S1(=O)=O` (stereo not shown) [Example 24, 2-(2,2-dioxido-1-phenyl-1H-4,2,1-benzoxathiazin-3-yl)ethanamine], the IC50 was 583 nM.

Regarding `CNCCC[C@@H]1Cc2cc(Cl)ccc2N(c2ccccc2F)S1(=O)=O` (single isomer, unassigned) [Example 177], the half-maximal inhibitory concentration (IC50) was found to be 43 nM.

As for `CNCCCC1Oc2ccc(C)cc2N(c2ccccc2)S1(=O)=O` (stereo not shown) [Example 50, N-methyl-3-(7-methyl-2,2-dioxido-1-phenyl-1H-4,2,1-benzoxathiazin-3-yl)propan-1-amine], the IC50 was 114 nM.

On to `CC1CN(CC2Oc3ccccc3N(c3ccccc3)S2(=O)=O)CC(C)N1` (stereo not shown) [Example 142, 3-[(3,5-dimethylpiperazin-1-yl)methyl]-1-phenyl-1H-4,2,1-benzoxathiazine 2,2-dioxide], for which the half-inhibitory concentration (IC50) worked out at 1150 nM.

Take `CNCCCC1Cc2ccccc2N(c2ccccc2F)S1(=O)=O` (stereo not shown) [Example 89, 3-[1-(2-fluorophenyl)-2,2-dioxido-3,4-dihydro-1H-2,1-benzothiazin-3-yl]-N-methylpropan-1-amine]: the IC50 came out at 18 nM.

`CN(CCCC1Oc2ccccc2N(c2ccccc2)S1(=O)=O)Cc1ccccc1` (stereo not shown) [Example 58, N-benzyl-3-(2,2-dioxido-1-phenyl-1H-4,2,1-benzoxathiazin-3-yl)-N-methylpropan-1-amine hydrochloride]: the IC50 was 822 nM.

As to `CNCCC[C@@H]1Cc2ccccc2N(c2ccccc2)S1(=O)=O` (single isomer, unassigned) [Example 11], the IC50 came to 17.9 nM.

For the compound `CNCCC[C@H]1Cc2cc(F)ccc2N(c2ccccc2C#N)S1(=O)=O` (single isomer, unassigned) [Example 164], the 50% inhibitory concentration (IC50) was 288 nM.

For the compound `CNCCC[C@@H]1Cc2cc(F)ccc2N(c2ccccc2OC)S1(=O)=O` (single isomer, unassigned) [Example 168], the half-maximal inhibitory concentration (IC50) worked out at 341 nM.

In the case of `CNCCC[C@H]1Oc2cc(F)ccc2N(c2ccccc2)S1(=O)=O` (single isomer, unassigned) [Example 106], the 50% inhibitory concentration (IC50) was determined as 97 nM.

For the compound `CNCCCC1Oc2ccccc2N(c2cccc(F)c2)S1(=O)=O` (stereo not shown) [Example 20, 3-[1-(3-fluorophenyl)-2,2-dioxido-1H-4,2,1-benzoxathiazin-3-yl]-N-methylpropan-1-amine], the IC50 stood at 106 nM.

For `CNCCC[C@@H]1Cc2cc(F)ccc2N(c2cc(F)ccc2F)S1(=O)=O` (single isomer, unassigned) [Example 153], the IC50 stood at 43 nM.

As to `CN(C)CCCC1Oc2ccccc2N(c2ccccc2)S1(=O)=O` (stereo not shown) [Example 80, 3-(2,2-dioxido-1-phenyl-1H-4,2,1-benzoxathiazin-3-yl)-N,N-dimethylpropan-1-amine hydrochloride], the half-maximal inhibitory concentration (IC50) was found to be 4160 nM.

With `CNCCC[C@@H]1Oc2cc3ccccc3cc2N(c2ccccc2)S1(=O)=O` (single isomer, unassigned) [Example 72, Hydrochloride], the IC50 was 115 nM.

In the case of `CNCCCC1Sc2ccccc2N(c2ccc(F)cc2)S1(=O)=O` (stereo not shown) [Example 64, 3-[1-(4-fluorophenyl)-2,2-dioxido-1H-2,4,1-benzodithiazin-3-yl]-N-methylpropan-1-amine Hydrochloride], the IC50 was determined as 1000 nM.

Turning to `CNCCC[C@@H]1Oc2cc(F)ccc2N(c2ccccc2)S1(=O)=O` (single isomer, unassigned) [Example 107], the IC50 stood at 74 nM.

Take `CNCC[C@@H](O)[C@H]1Cc2ccccc2N(c2ccccc2)S1(=O)=O` (single isomer, unassigned) [Example 116]: the IC50 is 85 nM.

On to `CNCCC[C@H]1Cc2cc(F)ccc2N(c2ccc(F)cc2C)S1(=O)=O` (single isomer, unassigned) [Example 170], for which the half-maximal inhibitory concentration (IC50) turned out to be 343 nM.

Regarding `CNCC[C@H](O)[C@@H]1Cc2ccccc2N(c2ccccc2)S1(=O)=O` (single isomer, unassigned) [Example 114], the IC50 was 101 nM.

On to `CNCC[C@@H](O)[C@@H]1Cc2ccccc2N(c2ccccc2)S1(=O)=O` (single isomer, unassigned) [Example 115], for which the half-maximal inhibitory concentration (IC50) worked out at 546 nM.

Regarding `CN(C)CCC1Oc2ccccc2N(c2ccccc2)S1(=O)=O` (stereo not shown) [Example 26, 2-(2,2-dioxido-1-phenyl-1H-4,2,1-benzoxathiazin-3-yl)-N,N-dimethylethanamine], the half-inhibitory concentration (IC50) stood at 97.1 nM.

For `CNC[C@@H](O)C[C@H]1Oc2ccccc2N(c2ccccc2)S1(=O)=O` (single isomer, unassigned) [Example 98], the concentration for half-maximal inhibition (IC50) turned out to be 77 nM.

As for `CNCCCC1Cc2cc(F)ccc2N(c2ccc(C)cc2F)S1(=O)=O` (racemic) [Example 148, 3-[6-fluoro-1-(2-fluoro-4-methylphenyl)-2,2-dioxido-3,4-dihydro-1H-2,1-benzothiazin-3-yl]-N-methylpropan-1-amine], the half-maximal inhibitory concentration (IC50) was 51 nM.

As to `CNCC[C@H]1Oc2cc(F)ccc2N(c2ccccc2)S1(=O)=O` (single isomer, unassigned) [Example 118], the IC50 came out at 143 nM.

As for `CNCCCC1Oc2cc(F)ccc2N(c2ccccc2)S1(=O)=O` (stereo not shown) [Example 46, 3-(6-fluoro-2,2-dioxido-1-phenyl-1H-4,2,1-benzoxathiazin-3-yl)-N-methylpropan-1-amine], the IC50 came out at 92.7 nM.

Still in this test, the particulars now being: MDCK-Net6 cells, 6,000 cells/well; Conc 6000 nM (6 μM); read-out: Procedure B hNET uptake (% inhibition).
By inhibition is commonly meant the drop in the measured response relative to a control, in per cent. For `CC(C)N(C)CCCC1Oc2ccccc2N(c2ccccc2)S1(=O)=O` (stereo not shown) [Example 84, 3-(2,2-dioxido-1-phenyl-1H-4,2,1-benzoxathiazin-3-yl)-N-isopropyl-N-methylpropan-1-amine Hydrochloride], the inhibition at 6 µM was determined as 27%.

In the case of `CCN(CC)CCCC1Oc2ccccc2N(c2ccccc2)S1(=O)=O` (stereo not shown) [Example 82, 3-(2,2-dioxido-1-phenyl-1H-4,2,1-benzoxathiazin-3-yl)-N,N-diethylpropan-1-amine hydrochloride], the inhibition at 6 µM was determined as 47%.

Regarding `CNCCCC1Sc2ccccc2N(c2ccc(OC)cc2)S1(=O)=O` (stereo not shown) [Example 65, 3-[1-(4-methoxyphenyl)-2,2-dioxido-1H-2,4,1-benzodithiazin-3-yl]-N-methylpropan-1-amine hydrochloride], the inhibition at 6 µM is 58%.

Turning to `O=S1(=O)C(CCN2CCCNCC2)Oc2ccccc2N1c1ccccc1` (stereo not shown) [Example 77, 3-[2-(1,4-diazepan-1-yl)ethyl]-1-phenyl-1H-4,2,1-benzoxathiazine-2,2-dioxide Dihydrochloride], the inhibition at 6 µM came to 33%.

In the case of `CN1CCN(CC2Oc3ccccc3N(c3ccccc3)S2(=O)=O)CC1` (stereo not shown) [Example 141, 3-[(4-methylpiperazin-1-yl)methyl]-1-phenyl-1H-4,2,1-benzoxathiazine 2,2-dioxide], the inhibition at 6 µM was found to be 30%.

With `CNCC1Oc2ccccc2N(c2ccccc2)S1(=O)=O` (stereo not shown) [Example 144, 1-(2,2-dioxido-1-phenyl-1H-4,2,1-benzoxathiazin-3-yl)-N-methylmethanamine], the inhibition at 6 µM amounted to 53%.
